ChEMBL document CHEMBL5512619, “Anticancer mechanism of coumarin-based derivatives” (Eur J Med Chem, 2024)
Values belong to the molecule of their own block, whether it stands above or below them.

How the values were obtained:
MDA-MB-231 = test: Antiproliferative activity against human MDA-MB-231 cells incubated 24 hrs by MTT assay; type: functional, cell-based; conditions: MDA-MB-231, 24 h
A549 = test: Antiproliferative activity against human A549 cells incubated 24 hrs by MTT assay; type: functional, cell-based; conditions: A549, 24 h
HeLa [1] = test: Antiproliferative activity against human HeLa cells assessed as inhibition of cell growth after 72 hrs by MTT assay; type: functional, cell-based
MCF7 = test: Antiproliferative activity against human MCF7 cells assessed as inhibition of cell growth after 72 hrs by MTT assay; type: functional, cell-based; conditions: MCF7, 72 h
SK-MEL-2 = test: Antiproliferative activity against human SK-MEL-2 cells assessed as inhibition of cell growth after 72 hrs by MTT assay; type: functional, cell-based; conditions: SK-MEL-2, 72 h
[2] = Antiproliferative activity against human Lu1 cells assessed as inhibition of cell growth after 72 hrs by MTT assay; type: functional, cell-based; conditions: Lu1, 72 h
HepG2 [3] = test: Antiproliferative activity against human HepG2 cells assessed as inhibition of cell growth after 72 hrs by MTT assay; type: functional, cell-based; conditions: HepG2, 72 h
HeLa [4] = test: Cytotoxicity against human HeLa cells; type: functional, cell-based
[5] = Cytotoxicity against human Lu1 cells; type: functional, cell-based
HepG2 [6] = test: Cytotoxicity against human HepG2 cells; type: functional, cell-based
Carbonic anhydrase 1 = Carbonic anhydrase 1 (Homo sapiens, UniProt P00915); test: Binding affinity to human CA1 assessed as inhibition constant incubated for 10 mins by phenol red dye based stopped flow CO2 hydration assay
Carbonic anhydrase 1, sequence (P00915 whole entry): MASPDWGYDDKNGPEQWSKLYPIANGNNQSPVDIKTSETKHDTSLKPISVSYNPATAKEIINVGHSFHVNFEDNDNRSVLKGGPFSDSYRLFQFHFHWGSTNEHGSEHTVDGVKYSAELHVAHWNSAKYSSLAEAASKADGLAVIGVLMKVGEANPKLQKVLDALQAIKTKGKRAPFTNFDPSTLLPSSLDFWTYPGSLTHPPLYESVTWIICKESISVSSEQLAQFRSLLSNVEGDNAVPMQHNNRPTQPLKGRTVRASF

Carbonic anhydrase 2 = Carbonic anhydrase 2 (Homo sapiens, UniProt P00918); test: Binding affinity to human CA2 assessed as inhibition constant incubated for 10 mins by phenol red dye based stopped flow CO2 hydration assay
[7] = target: Epidermal growth factor receptor (Homo sapiens, UniProt P00533); test: Inhibition of EGFR (unknown origin)
Epidermal growth factor receptor, sequence (P00533 whole entry): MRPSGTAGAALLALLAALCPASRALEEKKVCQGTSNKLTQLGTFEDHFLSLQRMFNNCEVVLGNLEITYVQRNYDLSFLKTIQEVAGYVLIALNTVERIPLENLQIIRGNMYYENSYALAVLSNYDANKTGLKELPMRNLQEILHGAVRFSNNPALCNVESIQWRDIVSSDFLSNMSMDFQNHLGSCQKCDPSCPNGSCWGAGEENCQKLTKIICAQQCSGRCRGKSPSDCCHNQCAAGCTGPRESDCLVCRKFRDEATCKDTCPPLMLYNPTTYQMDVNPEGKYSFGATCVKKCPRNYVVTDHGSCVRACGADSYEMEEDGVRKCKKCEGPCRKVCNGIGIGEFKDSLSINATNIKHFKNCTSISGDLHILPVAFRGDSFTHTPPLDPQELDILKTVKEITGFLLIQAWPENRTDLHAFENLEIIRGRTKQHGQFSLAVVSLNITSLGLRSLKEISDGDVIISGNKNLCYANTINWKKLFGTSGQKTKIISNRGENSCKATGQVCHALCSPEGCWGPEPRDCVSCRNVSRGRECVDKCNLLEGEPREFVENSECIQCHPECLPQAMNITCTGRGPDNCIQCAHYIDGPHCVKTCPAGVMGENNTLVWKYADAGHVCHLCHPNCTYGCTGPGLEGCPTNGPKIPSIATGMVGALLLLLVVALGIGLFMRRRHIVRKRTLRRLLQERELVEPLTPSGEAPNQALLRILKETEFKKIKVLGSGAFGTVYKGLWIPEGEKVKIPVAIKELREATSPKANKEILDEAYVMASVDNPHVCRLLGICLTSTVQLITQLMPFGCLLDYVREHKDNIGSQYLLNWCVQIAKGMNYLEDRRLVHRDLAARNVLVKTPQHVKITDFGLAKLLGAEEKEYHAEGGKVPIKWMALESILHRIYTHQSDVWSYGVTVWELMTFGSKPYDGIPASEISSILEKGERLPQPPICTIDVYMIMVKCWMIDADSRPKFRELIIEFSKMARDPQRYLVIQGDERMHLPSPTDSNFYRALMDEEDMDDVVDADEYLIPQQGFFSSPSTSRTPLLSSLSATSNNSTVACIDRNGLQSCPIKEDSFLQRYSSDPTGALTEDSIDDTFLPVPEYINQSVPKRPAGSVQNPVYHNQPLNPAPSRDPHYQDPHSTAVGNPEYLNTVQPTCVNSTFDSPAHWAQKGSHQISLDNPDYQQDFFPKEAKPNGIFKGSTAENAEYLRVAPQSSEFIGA

[8] = target: Receptor tyrosine-protein kinase erbB-2 (Homo sapiens, UniProt P04626); test: Inhibition of HER2 (unknown origin)
Receptor tyrosine-protein kinase erbB-2, sequence (P04626 whole entry): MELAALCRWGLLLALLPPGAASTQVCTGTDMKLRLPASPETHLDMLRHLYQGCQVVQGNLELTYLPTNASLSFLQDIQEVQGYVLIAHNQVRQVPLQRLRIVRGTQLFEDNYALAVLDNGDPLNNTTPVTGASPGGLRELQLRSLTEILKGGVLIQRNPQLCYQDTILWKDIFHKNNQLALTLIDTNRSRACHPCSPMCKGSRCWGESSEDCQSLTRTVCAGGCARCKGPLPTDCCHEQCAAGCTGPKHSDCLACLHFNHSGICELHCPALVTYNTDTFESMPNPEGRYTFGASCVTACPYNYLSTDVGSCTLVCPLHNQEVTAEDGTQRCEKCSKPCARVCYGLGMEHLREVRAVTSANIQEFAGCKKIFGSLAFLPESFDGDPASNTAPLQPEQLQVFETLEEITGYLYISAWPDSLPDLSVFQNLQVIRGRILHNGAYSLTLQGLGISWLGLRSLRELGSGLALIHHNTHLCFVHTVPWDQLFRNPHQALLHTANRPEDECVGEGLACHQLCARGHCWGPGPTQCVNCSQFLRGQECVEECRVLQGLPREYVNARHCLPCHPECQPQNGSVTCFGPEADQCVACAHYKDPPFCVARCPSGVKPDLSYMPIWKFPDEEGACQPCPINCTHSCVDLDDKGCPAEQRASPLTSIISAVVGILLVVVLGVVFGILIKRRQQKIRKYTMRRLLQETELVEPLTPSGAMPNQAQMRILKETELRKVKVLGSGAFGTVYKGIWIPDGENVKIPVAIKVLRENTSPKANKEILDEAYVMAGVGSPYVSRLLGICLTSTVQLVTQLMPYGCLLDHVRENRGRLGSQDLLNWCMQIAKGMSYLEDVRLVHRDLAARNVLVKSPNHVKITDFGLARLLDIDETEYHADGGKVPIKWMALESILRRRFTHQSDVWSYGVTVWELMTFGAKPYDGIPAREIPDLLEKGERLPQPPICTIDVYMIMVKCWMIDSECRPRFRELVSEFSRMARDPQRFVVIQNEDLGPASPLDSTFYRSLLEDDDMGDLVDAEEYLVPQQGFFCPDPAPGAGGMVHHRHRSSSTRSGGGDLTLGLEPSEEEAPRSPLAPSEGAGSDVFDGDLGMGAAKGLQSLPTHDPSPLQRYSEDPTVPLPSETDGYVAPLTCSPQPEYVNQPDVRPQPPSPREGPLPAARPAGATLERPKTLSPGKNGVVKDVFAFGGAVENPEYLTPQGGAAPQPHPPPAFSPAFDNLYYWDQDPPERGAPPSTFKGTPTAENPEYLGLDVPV

HepG2 [9] = test: Cytotoxicity against human HepG2 cells incubated for 72 hrs by MTT assay; type: functional, cell-based; conditions: HepG2, 72 h
[10] = Cytotoxicity against human Lu1 cells incubated for 72 hrs by MTT assay; type: functional, cell-based; conditions: Lu1, 72 h
HeLa [11] = test: Cytotoxicity against human HeLa cells incubated for 72 hrs by MTT assay; type: functional, cell-based

SMILES: COc1ccccc1-c1cc(-c2cc3ccccc3oc2=O)nc(Cc2ccc(F)cc2)n1
IC50 (MDA-MB-231): < 10000 nM
IC50 (A549): < 10000 nM

SMILES: O=c1oc2ccccc2cc1-c1cc(-c2cccc(Cl)c2)nc(Cc2ccc(F)cc2)n1
IC50 (MDA-MB-231): < 10000 nM
IC50 (A549): < 10000 nM

SMILES: O=c1oc2ccccc2cc1-c1cc(-c2ccccc2Br)nc(Cc2ccc(F)cc2)n1
IC50 (MDA-MB-231): < 10000 nM
IC50 (A549): < 10000 nM

SMILES: Cc1ccccc1-c1cc(-c2cc3ccccc3oc2=O)nc(Cc2ccc(F)cc2)n1
IC50 (MDA-MB-231): < 10000 nM
IC50 (A549): < 10000 nM

SMILES: COc1ccc(-c2cc(-c3cc4ccccc4oc3=O)nc(Cc3ccc(F)cc3)n2)cc1
IC50 (MDA-MB-231): < 10000 nM
IC50 (A549): < 10000 nM

SMILES: Cc1ccc(-c2cc(-c3cc4ccccc4oc3=O)nc(Cc3ccc(F)cc3)n2)cc1
IC50 (MDA-MB-231): < 10000 nM
IC50 (A549): < 10000 nM

SMILES: O=c1oc2ccccc2cc1-c1cc(-c2ccc(Br)cc2)nc(Cc2ccc(F)cc2)n1
IC50 (MDA-MB-231): < 10000 nM
IC50 (A549): < 10000 nM

SMILES: O=c1oc2ccccc2cc1-c1cc(-c2ccc(Cl)cc2)nc(Cc2ccc(F)cc2)n1
IC50 (MDA-MB-231): < 10000 nM
IC50 (A549): < 10000 nM

SMILES: COc1cccc(-c2cc(-c3cc4ccccc4oc3=O)nc(Cc3ccc(F)cc3)n2)c1
IC50 (MDA-MB-231): < 10000 nM
IC50 (A549): < 10000 nM

SMILES: CC(=O)OC[C@H]1O[C@@H](NC(=S)N/N=C(\C)c2cc3ccccc3oc2=O)[C@H](OC(C)=O)[C@@H](OC(C)=O)[C@H]1OC(C)=O
IC50 (HeLa [1]): 1280 nM
IC50 (MCF7): 1280 nM
IC50 (SK-MEL-2): 1280 nM
IC50 [2]: 1280 nM
IC50 (HepG2 [3]): 1280 nM

SMILES: CC(=O)OC[C@H]1O[C@@H](n2c(-c3ccccc3)cs/c2=N\N=C(/C)c2cc3cc(Cl)ccc3oc2=O)[C@H](OC(C)=O)[C@@H](OC(C)=O)[C@H]1OC(C)=O
IC50 (HeLa [4]): 1180 nM
IC50 [5]: 1180 nM
IC50 (HepG2 [6]): 1180 nM

SMILES: CC(=O)OC[C@H]1O[C@@H](n2c(-c3ccccc3)cs/c2=N\N=C(/C)c2cc3cc(Br)ccc3oc2=O)[C@H](OC(C)=O)[C@@H](OC(C)=O)[C@H]1OC(C)=O
IC50 (HeLa [4]): 1180 nM
IC50 [5]: 1180 nM
IC50 (HepG2 [6]): 1180 nM

SMILES: CC(=O)OC[C@H]1O[C@@H](NC(=S)N/N=C(\C)c2c(O)c3ccccc3oc2=O)[C@H](OC(C)=O)[C@@H](OC(C)=O)[C@H]1OC(C)=O
IC50 (HeLa [1]): 1280 nM
IC50 (MCF7): 1280 nM
IC50 (SK-MEL-2): 1280 nM
IC50 [2]: 1280 nM
IC50 (HepG2 [3]): 1280 nM

SMILES: CCCCCOc1ccc2oc(=O)cc(C3SC(N(C(C)=O)[C@@H]4O[C@H](COC(C)=O)[C@@H](OC(C)=O)[C@H](OC(C)=O)[C@H]4OC(C)=O)=NN3C(C)=O)c2c1 (stereo partly drawn)
IC50 (HepG2 [9]): 1180 nM
IC50 [7]: 220 nM
IC50 [10]: 1180 nM
IC50 [8]: 130 nM
IC50 (HeLa [11]): 1180 nM

SMILES: COc1cccc2cc(/C(C)=N/NC(=S)N[C@@H]3O[C@H](COC(C)=O)[C@H](OC(C)=O)[C@H](OC(C)=O)[C@H]3OC(C)=O)c(=O)oc12
IC50 (HeLa [1]): 1280 nM
IC50 (MCF7): 1280 nM
IC50 (SK-MEL-2): 1280 nM
IC50 [2]: 1280 nM
IC50 (HepG2 [3]): 1280 nM

Continued, in another order:

IC50 (MDA-MB-231): < 10000 nM
IC50 (A549): < 10000 nM
SMILES: O=c1oc2ccccc2cc1-c1cc(-c2ccccc2Cl)nc(Cc2ccc(F)cc2)n1

IC50 (MDA-MB-231): < 10000 nM
IC50 (A549): < 10000 nM
SMILES: Cc1cccc(-c2cc(-c3cc4ccccc4oc3=O)nc(Cc3ccc(F)cc3)n2)c1

IC50 (MDA-MB-231): < 10000 nM
IC50 (A549): < 10000 nM
SMILES: O=c1oc2ccccc2cc1-c1cc(-c2cccc(Br)c2)nc(Cc2ccc(F)cc2)n1

Ki (Carbonic anhydrase 1): 99.4 nM
Ki (Carbonic anhydrase 2): 99.4 nM
SMILES: C[C@@H]1CN(S(=O)(=O)c2cccc(C(=O)Nc3ccc4c(c3)C=CS(=O)(=O)O4)c2)C[C@H](C)O1

IC50 [7]: 150 nM
IC50 [8]: 150 nM
SMILES: CC(=O)OC[C@H]1O[C@@H](n2c(-c3ccccc3)cs/c2=N\N=C\c2cc(=O)oc3ccc(OCC(C)C)cc23)[C@H](OC(C)=O)[C@@H](OC(C)=O)[C@@H]1OC(C)=O
IC50 (HeLa [4]): 1180 nM
IC50 [5]: 1180 nM
IC50 (HepG2 [6]): 1180 nM

Ki (Carbonic anhydrase 1): 99.4 nM
Ki (Carbonic anhydrase 2): 99.4 nM
SMILES: O=C(Nc1ccc2c(c1)C=CS(=O)(=O)O2)c1cccc(S(=O)(=O)N2CCOCC2)c1

Ki (Carbonic anhydrase 1): 99.4 nM
Ki (Carbonic anhydrase 2): 99.4 nM
SMILES: O=C(Nc1ccc2c(c1)C=CS(=O)(=O)O2)c1cccc(S(=O)(=O)N2CCCC2)c1

Ki (Carbonic anhydrase 1): 99.4 nM
Ki (Carbonic anhydrase 2): 99.4 nM
SMILES: Cc1ccc(C(=O)Nc2ccc3c(c2)C=CS(=O)(=O)O3)cc1S(=O)(=O)N1CCCCC1
